Results reported in ChEMBL document CHEMBL1127182, “DNA gyrase inhibitory and antibacterial activity of some flavones(1)” (Bioorg Med Chem Lett, 1993).
Converted amounts (≈) assume the structure as drawn. “And” between values parts separate entries of the source, which are not always exact repeats. Identical values can stand only once.

Test system: Escherichia coli
Test: Tested for antibacterial activity as minimum inhibitory concentration against Escherichia coli KL-16 in the absence of polymyxin B nonapeptide (PBMN) at 0 ug/mL
Format: functional
Settings: not given

MIC [µg/mL]	SMILES
> 125	O=c1c(O)c(-c2ccc(O)c(O)c2)oc2cc(O)ccc12 [FISETIN]
> 125	O=c1c(O)c(-c2ccccc2)oc2ccccc12 [FLAVONOL]
> 125	O=c1c(O)c(-c2ccccc2)oc2cc(O)cc(O)c12 [GALANGIN]
> 125	COc1ccc(-c2oc3cc(O)cc(O)c3c(=O)c2O)cc1 [KAEMPFERIDE]
0.0625 (≈ 0.173 µM)	CC1COc2c(N3CCN(C)CC3)c(F)cc3c(=O)c(C(=O)O)cn1c23 (configuration not stated) [OFLOXACIN]

SMILES	MIC [µg/mL]
O=c1c(O)c(-c2cc(O)c(O)c(O)c2)oc2cc(O)cc(O)c12 [MYRICETIN]	> 125
CCn1cc(C(=O)O)c(=O)c2ccc(C)nc21 [NALIDIXIC ACID]	2 (≈ 8.61 µM)
O=c1c(O)c(-c2ccc(O)c(O)c2)oc2cc(O)cc(O)c12 [QUERCETIN]	> 125

Test system: Escherichia coli
Test: Tested for antibacterial activity as minimum inhibitory concentration against Escherichia coli KL-16 in the presence of polymyxin B nonapeptide (PBMN) at 1 ug/mL
Format: functional
Settings: not given

MIC [µg/mL]	SMILES
15.6	O=c1c(O)c(-c2ccc(O)c(O)c2)oc2cc(O)ccc12 [FISETIN]
> 125	O=c1c(O)c(-c2ccccc2)oc2ccccc12 [FLAVONOL]
> 125	O=c1c(O)c(-c2ccccc2)oc2cc(O)cc(O)c12 [GALANGIN]
> 125	COc1ccc(-c2oc3cc(O)cc(O)c3c(=O)c2O)cc1 [KAEMPFERIDE]
< 0.015	CC1COc2c(N3CCN(C)CC3)c(F)cc3c(=O)c(C(=O)O)cn1c23 (configuration not stated) [OFLOXACIN]

SMILES	MIC [µg/mL]
O=c1c(O)c(-c2cc(O)c(O)c(O)c2)oc2cc(O)cc(O)c12 [MYRICETIN]	15.6
CCn1cc(C(=O)O)c(=O)c2ccc(C)nc21 [NALIDIXIC ACID]	0.5

Test system: Escherichia coli
Test: Tested for antibacterial activity as minimum inhibitory concentration against Escherichia coli-ss in the absence of polymyxin B nonapeptide (PBMN) at 0 ug/mL
Format: functional
Settings: not given

SMILES	MIC [µg/mL]
O=c1c(O)c(-c2ccc(O)c(O)c2)oc2cc(O)cc(O)c12 [QUERCETIN]	31.25 (≈ 103 µM)

Same assay, conditions: Escherichia coli; read-out: MIC

MIC [µg/mL]	SMILES
62.5 (≈ 218 µM)	O=c1c(O)c(-c2ccc(O)c(O)c2)oc2cc(O)ccc12 [FISETIN]
> 125	O=c1c(O)c(-c2ccccc2)oc2ccccc12 [FLAVONOL]
> 125	O=c1c(O)c(-c2ccccc2)oc2cc(O)cc(O)c12 [GALANGIN]
> 125	COc1ccc(-c2oc3cc(O)cc(O)c3c(=O)c2O)cc1 [KAEMPFERIDE]
< 0.5	CC1COc2c(N3CCN(C)CC3)c(F)cc3c(=O)c(C(=O)O)cn1c23 (configuration not stated) [OFLOXACIN]

SMILES	MIC [µg/mL]
O=c1c(O)c(-c2cc(O)c(O)c(O)c2)oc2cc(O)cc(O)c12 [MYRICETIN]	62.5 (≈ 196 µM)
CCn1cc(C(=O)O)c(=O)c2ccc(C)nc21 [NALIDIXIC ACID]	0.5 (≈ 2.15 µM)
O=c1c(O)c(-c2ccc(O)c(O)c2)oc2cc(O)cc(O)c12 [QUERCETIN]	62.5 (≈ 207 µM)

Test system: Escherichia coli
Test: Tested for antibacterial activity as minimum inhibitory concentration against Escherichia coli-ss in the presence of polymyxin B nonapeptide (PBMN) at 1 ug/mL
Format: functional
Settings: not given

SMILES	MIC [µg/mL]
O=c1c(O)c(-c2ccc(O)c(O)c2)oc2cc(O)cc(O)c12 [QUERCETIN]	1

Same assay, conditions: Escherichia coli; read-out: MIC

MIC [µg/mL]	SMILES
3.9	O=c1c(O)c(-c2ccc(O)c(O)c2)oc2cc(O)ccc12 [FISETIN]
> 125	O=c1c(O)c(-c2ccccc2)oc2ccccc12 [FLAVONOL]
> 125	O=c1c(O)c(-c2ccccc2)oc2cc(O)cc(O)c12 [GALANGIN]
> 125	COc1ccc(-c2oc3cc(O)cc(O)c3c(=O)c2O)cc1 [KAEMPFERIDE]
< 0.5	CC1COc2c(N3CCN(C)CC3)c(F)cc3c(=O)c(C(=O)O)cn1c23 (configuration not stated) [OFLOXACIN]

SMILES	MIC [µg/mL]
O=c1c(O)c(-c2cc(O)c(O)c(O)c2)oc2cc(O)cc(O)c12 [MYRICETIN]	3.9
CCn1cc(C(=O)O)c(=O)c2ccc(C)nc21 [NALIDIXIC ACID]	0.125
O=c1c(O)c(-c2ccc(O)c(O)c2)oc2cc(O)cc(O)c12 [QUERCETIN]	2

Molecular target: DNA gyrase (Escherichia coli, UniProt P0AES4+P0AES6)
Test: In vitro antibacterial activity was determined as inhibitory concentration causing 50% DNA-gyrase supercoiling inhibition (SCI)
Format: protein-complex assay
Settings: not given

IC50	SMILES
291 µM	O=c1c(O)c(-c2ccc(O)c(O)c2)oc2cc(O)ccc12 [FISETIN]
> 2100 µM	O=c1c(O)c(-c2ccccc2)oc2ccccc12 [FLAVONOL]
> 1850 µM	O=c1c(O)c(-c2ccccc2)oc2cc(O)cc(O)c12 [GALANGIN]
> 1670 µM	COc1ccc(-c2oc3cc(O)cc(O)c3c(=O)c2O)cc1 [KAEMPFERIDE]

SMILES	IC50
O=c1c(O)c(-c2cc(O)c(O)c(O)c2)oc2cc(O)cc(O)c12 [MYRICETIN]	707 µM
O=c1c(O)c(-c2ccc(O)c(O)c2)oc2cc(O)cc(O)c12 [QUERCETIN]	182 µM and 156 µM

Test system: Stenotrophomonas maltophilia
Test: Tested for antibacterial activity as minimum inhibitory concentration against Pseudomonas maltophilia 1057 in the presence of polymyxin B nonapeptide (PBMN) at 0 ug/mL
Format: functional
Settings: not given

MIC [µg/mL]	SMILES
> 125	O=c1c(O)c(-c2ccc(O)c(O)c2)oc2cc(O)ccc12 [FISETIN]
> 125	O=c1c(O)c(-c2ccccc2)oc2ccccc12 [FLAVONOL]
> 125	O=c1c(O)c(-c2ccccc2)oc2cc(O)cc(O)c12 [GALANGIN]
> 125	COc1ccc(-c2oc3cc(O)cc(O)c3c(=O)c2O)cc1 [KAEMPFERIDE]
2	CC1COc2c(N3CCN(C)CC3)c(F)cc3c(=O)c(C(=O)O)cn1c23 (configuration not stated) [OFLOXACIN]

SMILES	MIC [µg/mL]
O=c1c(O)c(-c2cc(O)c(O)c(O)c2)oc2cc(O)cc(O)c12 [MYRICETIN]	> 125
CCn1cc(C(=O)O)c(=O)c2ccc(C)nc21 [NALIDIXIC ACID]	62.5
O=c1c(O)c(-c2ccc(O)c(O)c2)oc2cc(O)cc(O)c12 [QUERCETIN]	> 125

Test system: Stenotrophomonas maltophilia
Test: Tested for antibacterial activity as minimum inhibitory concentration against Pseudomonas maltophilia 1057 in the presence of polymyxin B nonapeptide (PBMN) at 1 ug/mL
Format: functional
Settings: not given

MIC [µg/mL]	SMILES
> 125	O=c1c(O)c(-c2ccc(O)c(O)c2)oc2cc(O)ccc12 [FISETIN]
> 125	O=c1c(O)c(-c2ccccc2)oc2ccccc12 [FLAVONOL]
> 125	O=c1c(O)c(-c2ccccc2)oc2cc(O)cc(O)c12 [GALANGIN]
> 125	COc1ccc(-c2oc3cc(O)cc(O)c3c(=O)c2O)cc1 [KAEMPFERIDE]
1	CC1COc2c(N3CCN(C)CC3)c(F)cc3c(=O)c(C(=O)O)cn1c23 (configuration not stated) [OFLOXACIN]

SMILES	MIC [µg/mL]
O=c1c(O)c(-c2cc(O)c(O)c(O)c2)oc2cc(O)cc(O)c12 [MYRICETIN]	125
CCn1cc(C(=O)O)c(=O)c2ccc(C)nc21 [NALIDIXIC ACID]	15.6
O=c1c(O)c(-c2ccc(O)c(O)c2)oc2cc(O)cc(O)c12 [QUERCETIN]	> 125

Test system: Salmonella typhimurium
Test: Tested for antibacterial activity as minimum inhibitory concentration against Salmonella Typhimurium 701 in the absence of polymyxin B nonapeptide (PBMN) at 0 ug/mL
Format: functional, Salmonella enterica subsp. enterica serovar Typhimurium
Settings: Salmonella enterica

MIC [µg/mL]	SMILES
> 125	O=c1c(O)c(-c2ccc(O)c(O)c2)oc2cc(O)ccc12 [FISETIN]
> 125	O=c1c(O)c(-c2ccccc2)oc2ccccc12 [FLAVONOL]
> 125	O=c1c(O)c(-c2ccccc2)oc2cc(O)cc(O)c12 [GALANGIN]
> 125	COc1ccc(-c2oc3cc(O)cc(O)c3c(=O)c2O)cc1 [KAEMPFERIDE]
0.125 (≈ 0.346 µM)	CC1COc2c(N3CCN(C)CC3)c(F)cc3c(=O)c(C(=O)O)cn1c23 (configuration not stated) [OFLOXACIN]

SMILES	MIC [µg/mL]
O=c1c(O)c(-c2cc(O)c(O)c(O)c2)oc2cc(O)cc(O)c12 [MYRICETIN]	> 125
CCn1cc(C(=O)O)c(=O)c2ccc(C)nc21 [NALIDIXIC ACID]	3.9 (≈ 16.8 µM)
O=c1c(O)c(-c2ccc(O)c(O)c2)oc2cc(O)cc(O)c12 [QUERCETIN]	> 125

Test system: Staphylococcus epidermidis
Test: Tested for antibacterial activity as minimum inhibitory concentration against Staphylococcus epidermidis strain OC2603
Format: functional
Settings: not given

MIC [µg/mL]	SMILES
> 125	O=c1c(O)c(-c2ccc(O)c(O)c2)oc2cc(O)ccc12 [FISETIN]
> 125	O=c1c(O)c(-c2ccccc2)oc2ccccc12 [FLAVONOL]
> 125	O=c1c(O)c(-c2ccccc2)oc2cc(O)cc(O)c12 [GALANGIN]
> 125	COc1ccc(-c2oc3cc(O)cc(O)c3c(=O)c2O)cc1 [KAEMPFERIDE]
≤ 0.5	CC1COc2c(N3CCN(C)CC3)c(F)cc3c(=O)c(C(=O)O)cn1c23 (configuration not stated) [OFLOXACIN]

SMILES	MIC [µg/mL]
O=c1c(O)c(-c2cc(O)c(O)c(O)c2)oc2cc(O)cc(O)c12 [MYRICETIN]	62.5 (≈ 196 µM)
CCn1cc(C(=O)O)c(=O)c2ccc(C)nc21 [NALIDIXIC ACID]	250 (≈ 1080 µM)

Test system: Staphylococcus aureus
Test: Tested for antibacterial activity as minimum inhibitory concentration against Staphylococcus aureus strain OC6538
Format: functional
Settings: not given

SMILES	MIC [µg/mL]
O=c1c(O)c(-c2ccc(O)c(O)c2)oc2cc(O)cc(O)c12 [QUERCETIN]	>125

Same assay, conditions: Staphylococcus aureus; read-out: MIC

MIC [µg/mL]	SMILES
> 125	O=c1c(O)c(-c2ccc(O)c(O)c2)oc2cc(O)ccc12 [FISETIN]
> 125	O=c1c(O)c(-c2ccccc2)oc2ccccc12 [FLAVONOL]
> 125	O=c1c(O)c(-c2ccccc2)oc2cc(O)cc(O)c12 [GALANGIN]
> 125	COc1ccc(-c2oc3cc(O)cc(O)c3c(=O)c2O)cc1 [KAEMPFERIDE]
≤ 0.5	CC1COc2c(N3CCN(C)CC3)c(F)cc3c(=O)c(C(=O)O)cn1c23 (configuration not stated) [OFLOXACIN]

SMILES	MIC [µg/mL]
O=c1c(O)c(-c2cc(O)c(O)c(O)c2)oc2cc(O)cc(O)c12 [MYRICETIN]	125 (≈ 393 µM)
CCn1cc(C(=O)O)c(=O)c2ccc(C)nc21 [NALIDIXIC ACID]	500 (≈ 2150 µM)
O=c1c(O)c(-c2ccc(O)c(O)c2)oc2cc(O)cc(O)c12 [QUERCETIN]	62.5 (≈ 207 µM)

Test system: Salmonella typhimurium
Test: Tested for antibacterial activity as minimum inhibitory concentration against Salmonella Typhimurium 701 in the presence of polymyxin B nonapeptide (PBMN) at 1 ug/mL
Format: functional, Salmonella enterica subsp. enterica serovar Typhimurium
Settings: not given

SMILES	MIC
O=c1c(O)c(-c2ccc(O)c(O)c2)oc2cc(O)cc(O)c12 [QUERCETIN]	15.6 µg/mL and 31.25 µg/mL

Same assay, conditions: Salmonella enterica; read-out: MIC

MIC [µg/mL]	SMILES
31.2	O=c1c(O)c(-c2ccc(O)c(O)c2)oc2cc(O)ccc12 [FISETIN]
> 125	O=c1c(O)c(-c2ccccc2)oc2ccccc12 [FLAVONOL]
> 125	O=c1c(O)c(-c2ccccc2)oc2cc(O)cc(O)c12 [GALANGIN]
> 125	COc1ccc(-c2oc3cc(O)cc(O)c3c(=O)c2O)cc1 [KAEMPFERIDE]
0.0625	CC1COc2c(N3CCN(C)CC3)c(F)cc3c(=O)c(C(=O)O)cn1c23 (configuration not stated) [OFLOXACIN]

SMILES	MIC [µg/mL]
O=c1c(O)c(-c2cc(O)c(O)c(O)c2)oc2cc(O)cc(O)c12 [MYRICETIN]	15.6
CCn1cc(C(=O)O)c(=O)c2ccc(C)nc21 [NALIDIXIC ACID]	2
